From article PMC4806491, “The milk-derived fusion peptide, ACFP, suppresses the growth of primary human ovarian cancer cells by regulating apoptotic gene expression and signaling pathways” (BMC Cancer, 2016)
In brackets after ≈: the same amount, converted by molar mass. Entries after “also recorded” stand apart in the source; their conditions may differ. Where two headings read alike, the source gives them in different places. Positions of bridges follow the written chain, without caps; N, C: chain ends. Residues, ends and D or L forms follow the SMILES beside them.

What was measured:
[1] = tested on: primary ovarian cancer cells; format: cell-based, human
Procedure: Fresh primary ovarian tumor tissues that were assessed and classified as serous ovarian adenocarcinoma (III-IV grade) according to WHO criteria were collected from 53 ovarian cancer patients who underwent initial debulking surgery at the first affiliated hospital of Anhui Medical University between June 2012 and June 2014. All patients had not received adjuvant therapies, such as chemotherapy or radiotherapy, prior to surgery. For comparison, normal ovarian glandular epithelium cells (NOGECs) were cultured from fresh primary normal ovarian tissues harvested from 7 patients with uterine fibromas, which were confirmed as negative for any neoplastic disease by pathological examination. Prior to tissue deposition, all patients signed written consent forms confirming their donation of tissue for research purposes according to the Declaration of Helsinki. This study was approved by the Anhui Medical University Review Board. Tumor or normal ovarian tissues were cut into small 1.0 mm^3 pieces, rinsed two times in phosphate buffered saline (PBS) and digested with 0.25 % trypsin in a sterile centrifuge tube at 37 °C for 30 min. To obtain a single cell suspension cell, digested tissues were filtered with a 100 μm cell strainer. Cells were collected by centrifugation at 1000 rpm for five minutes, and the cell pellet was re-suspended in Dulbecco’s modified eagle medium (DMEM) supplemented with 10 % fetal bovine serum (FBS). Cells were subsequently cultured in DMEM containing 0.1 mg/L epidermal growth factor (EGF), 0.1 mg/L insulin-like growth factor (IGF) and 0.1 mg/L beta-estradiol with 10 % FBS in 5 % CO2 at 37 °C. Once cells reached 70 to 80 % confluence, cell culture medium was drained from the flask, and cells were digested with 0.25 % collagenase II until approximately 1/3 of the cells fell to the bottom of the dish by eye using a microscope. Due to their initial shedding, most fibroblasts were eliminated by collagenase digestion. The remaining cells were cultured in 5 % CO2 at 37 °C. To determine purity, cells were analyzed using immunofluorescence of cytokeratin 7 (for ovarian cancer cells) or cytokeratin 19 (for normal ovarian epithelium cells).
Primary ovarian cancer cells were seeded into 96-well plates in sextuplicate at a starting density of 5 × 10^3 cells/well and incubated with ACFP at the concentrations: 0 (as control), 5 × 10^−6, 5 × 10^−5, 5 × 10^−4, 5 × 10^−3, 5 × 10^−2, 5 × 10^−1 and 5 g/L for 24, 48 and 72 h, respectively. Cells treated with paclitaxel at 5 × 10^−4 g/L were included in the same plate as a positive control. Cell viability was later measured using the WST-1 (water-soluble tetrazolium 1) cell viability and cytotoxicity assay kit (Beyotime, Haimen, China) according to the manufacturer’s instructions. The percent viability of cells was calculated using the formula to calculate the cell viability ratio (VR): VR (%) = (the experimental group A450nm value/control group A450nm value) × 100 %. To assess general toxicity of ACFP, viability of normal ovarian cells treated with ACFP was assayed using the same procedure. The effect of ACFP was compared with LfcinB and PGPIPN (the products of Shanghai Sangon Biological Engineering Technology, China). Each experiment was performed in two independent sets.

[2] = tested on: normal ovarian glandular epithelium cells (NOGECs); test: WST-1 viability assay, general toxicity; format: cell-based, human; details: WST-1, compared with paclitaxel, Fig. 3b, cells from 7 patients
Procedure: Fresh primary ovarian tumor tissues that were assessed and classified as serous ovarian adenocarcinoma (III-IV grade) according to WHO criteria were collected from 53 ovarian cancer patients who underwent initial debulking surgery at the first affiliated hospital of Anhui Medical University between June 2012 and June 2014. All patients had not received adjuvant therapies, such as chemotherapy or radiotherapy, prior to surgery. For comparison, normal ovarian glandular epithelium cells (NOGECs) were cultured from fresh primary normal ovarian tissues harvested from 7 patients with uterine fibromas, which were confirmed as negative for any neoplastic disease by pathological examination. […] To determine purity, cells were analyzed using immunofluorescence of cytokeratin 7 (for ovarian cancer cells) or cytokeratin 19 (for normal ovarian epithelium cells).
Primary ovarian cancer cells were seeded into 96-well plates in sextuplicate at a starting density of 5 × 10^3 cells/well and incubated with ACFP at the concentrations: 0 (as control), 5 × 10^−6, 5 × 10^−5, 5 × 10^−4, 5 × 10^−3, 5 × 10^−2, 5 × 10^−1 and 5 g/L for 24, 48 and 72 h, respectively. […] Cell viability was later measured using the WST-1 (water-soluble tetrazolium 1) cell viability and cytotoxicity assay kit (Beyotime, Haimen, China) according to the manufacturer’s instructions. […]

[3] = tested on: primary ovarian cancer cells; test: Western blot of Bcl-xl, Bax, Akt, Caspase-3, CDC25C and CyclinB1 proteins; format: cell-based, human; details: 48 h
Procedure: Proteins were isolated from primary ovarian cancer cells harvested after ACFP treatment, separated by SDS-PAGE and transferred to PVDF membrane using the standard protocol. After blocking with 5 % (w/v) dry skim milk, membranes were incubated with primary antibodies (mouse monoclonal Bcl-xl, Bax, Akt, Caspase-3, CDC25C, CyclinB1 and β-Actin antibodies, 1:1000 dilution) according to the manufacturer’s instructions and later incubated with a horseradish peroxidase conjugated secondary antibody (goat anti-mouse IgG, 1:8000 dilution). The proteins were detected with the enhanced chemiluminescence (ECL) system followed by exposure to X-ray film. The β-Actin was used as a loading control. Two independent experiments were performed. Digital images were captured by Gel DocTM gel documentation system (Bio-Rad, USA) and intensities were quantified using Quantity-One software version 4.62 (Bio-Rad, USA).

[4] = solubility in water and octanol; format: physicochemical
stability in pH 7 water = format: physicochemical; details: n=3, Figure S2

CC[C@H](C)[C@@H]1NC(=O)[C@H](CO)NC(=O)[C@@H]2CCCN2C(=O)[C@H](C)NC(=O)CNC(=O)[C@H](CC(C)C)NC(=O)[C@H](CCCCN)NC(=O)[C@H](CCCCN)NC(=O)[C@H](CCSC)NC(=O)[C@H](CCCNC(=N)N)NC(=O)[C@H](Cc2c[nH]c3ccccc23)NC(=O)[C@H](CCC(N)=O)NC(=O)[C@H](Cc2c[nH]c3ccccc23)NC(=O)[C@H](CCCNC(=N)N)NC(=O)[C@H](CCCNC(=N)N)NC(=O)[C@@H](NC(=O)[C@H](CCCCN)NC(=O)[C@@H](N)Cc2ccccc2)CSSC[C@@H](C(=O)N[C@H](C(=O)N[C@@H](CCCNC(=N)N)C(=O)N[C@@H](CCCNC(=N)N)C(=O)N[C@@H](C)C(=O)N[C@@H](Cc2ccccc2)C(=O)NCC(=O)NCC(=O)NCC(=O)NCC(=O)N[C@@H](CO)C(=O)N2CCC[C@H]2C(=O)NCC(=O)N2CCC[C@H]2C(=O)N[C@H](C(=O)N2CCC[C@H]2C(=O)N[C@@H](CC(N)=O)C(=O)O)[C@@H](C)CC)C(C)C)NC(=O)[C@H]([C@@H](C)O)NC1=O [ACFP] (H-FKCRRWQWRMKKLGAPSITCVRRAFGGGGSPGPIPN-OH; disulfide 3-20; N-terminus and C-terminus assumed)
IC50, cell viability ([1]; 24 h): 11.5 µg/mL (≈ 2.86 µM) | IC50, cell viability ([1]; 48 h): 1.63 µg/mL (≈ 0.406 µM) | IC50, cell viability ([1]; 72 h): 0.388 µg/mL (≈ 0.0966 µM) | growth of human primary ovarian cells ([1]; different concentrations, 48 h, in vitro, n=12, Figure S1): decreased growth | cytotoxicity toward normal primary ovarian cells [2]: little or no cytotoxicity | protein levels of Bax and Caspase-3 ([3]; different concentrations, compared to control-treated group): elevated | protein levels of Bcl-xl, Akt, CDC25C and CyclinB1 ([3]; increasing drug concentration): gradually decreased | solubility in fat (octanol) [4]: slightly soluble | solubility in water [4]: easily dissolve | stability (stability in pH 7 water): very stable; also recorded: good stability
